Laboratory results from patent US20150168420A1, “BIOORTHOGONAL CHEMICAL INDUCERS OF REVERSIBLE DIMERIZATION FOR CONTROL OF PROTEIN FUNCTION IN CELLS” (MAX-PLANCK-GESELLSCHAFT ZUR FÖRDERUNG DER WISSENSCHAFTEN …, priority 2012, published 2015).
“Also recorded” adds a separate entry of the source.

Experiments:
[1] = target: Citrine-eDHFR-PM and Cherry-FKBP WT (Escherichia coli, UniProt P0ABQ4); assay: Translocation to plasma membrane and FLIM in MCF-7 cells, FKBP WT; type: cell-based; conditions: 2 μM, 2 h
[2] = target: FKBP(F36V) (Homo sapiens, UniProt P62942, F37V); conditions: cited from earlier work
[3] = target: wild type FKBP (Homo sapiens, UniProt P62942); conditions: cited from earlier work
[4] = system: Beclin1; conditions: starved EGFP-LC3 MCF-7 cells, 1 μM

In the case of `CCC(C)(C)C(=O)C(=O)N1CCCCC1C(=O)O[C@H](CCc1ccc(OC)c(OC)c1)c1cccc(NC(=O)CCC(=O)NCCCOCCOCCOCCCNC(=O)COc2c(OC)cc(Cc3cnc(N)nc3N)cc2OC)c1` (some centres unmarked) [SLF-TMP], the “translocation of cognate binding domain FKBP WT to the plasma membrane” value [1] is reported as “cannot induce translocation”.
For `CCC(C)(C)C(=O)C(=O)N1CCCC[C@H]1C(=O)O[C@H](CCc1ccc(OC)c(OC)c1)c1cccc(OCC(=O)O)c1` [SLF], the “affinity to FKBP(F36V)” value ([2]; in words) is listed as “low affinity” and the Kd ([3]; read-out: Kd for endogenous FKBP) is listed as 10 to 20 nM.
For `CCC(C(=O)N1CCCCC1C(=O)O[C@H](CCc1ccc(OC)c(OC)c1)c1cccc(OCC(=O)NCCCOCCOCCOCCCNC(=O)COc2c(OC)cc(Cc3cnc(N)nc3N)cc2OC)c1)c1cc(OC)c(OC)c(OC)c1` (some centres unmarked) [SLF′-TMP], the “autophagy (LC3 puncta) on Beclin1 knock off / knock on” value [4] was “Inhibition of autophagy”.
For `CCC(C(=O)N1CCCCC1C(=O)O[C@H](CCc1ccc(OC)c(OC)c1)c1cccc(OCC(=O)O)c1)c1cc(OC)c(OC)c(OC)c1` (some centres unmarked) [SLF′], the Kd ([2]; read-out: Kd for binding domain of FKBP(F36V)) is given as 0.094 nM, the “binding to naturally occurring (unmutated) FKBP” value ([3]; in words) is given as “does not bind at all; also recorded: very low affinity” and the “fold lower affinity for wild type FKBP than for mutant FKBP(F36V)” value ([3]; wild type versus F36V) is given as greater than 1000 fold.
In the case of `COc1cc(Cc2cnc(N)nc2N)cc(OC)c1OC` [TMP, 5-(3,4,5-trimethoxybenzyl)pyrimidine-2,4-diamine], the “autophagy (LC3 puncta) on Beclin1 knock off / knock on” value [4] is reported as “Recovery of autophagy”.
